Source: patent US10174013B2, “Benzimidazole derivatives as kinase inhibitors” (SELVITA S.A., priority 2012, dated 2019)
Like-named read-outs stand apart in the source and are kept apart here.

How the values were obtained:
[1] = system: MV4-11 xenograft; assay: MV4-11 xenograft in immunocompromised mice; type: in vivo
Excerpt: Several compounds of the present invention have been studied in a xenograft in mice, an in vivo tumor transplantation model used to investigate the factors involved in malignant transformation, invasion and metastasis, as well as to examine response to therapy. For the purpose of acceptance of donor leukemic cells (MV4-11 or MOLM16 cells), immunocompromised mice were used, namely particularly severely compromised immunodeficient mice (NOD/scid, SCID/beige). When tumors developed size of approx. 50-200 mm^3, the compounds as indicated below in Tables 3 and 3a were administered orally every day for 2-3 weeks, in once a day (QD) or twice a day (BID) schedule. During the course of the experiment, the mice were monitored and the following two parameters were measured: the tumor growth inhibition (TGI) factor as a measure of therapeutic efficacy and the body weight change (ΔBW) factor as a measure of possible compound toxicity. The results are depicted in Tables 3 and 3a.
Next, compound 26A was evaluated in a xenograft study of acute myeloid leukemia (MV-4-11), alone or in a combinational treatment with Cytarabine in vivo (Table 3b; FIG. 6). Compound 26A was tested in two doses (50 and 25 mg/kg) and administered twice a day (BID); Cytarabine was administered at dose of 50 mg/kg three times in a week (TIW). During 15 days of compound administration dose-dependent anti-cancer activity of compound 26A (administered alone) was shown. Tumor growth inhibition reached −82% and −77%, respectively.

[2] = system: HEL92 cells; assay: Growth inhibition, MTS assay, HEL92; type: cell-based, Human; settings: MTS cell viability, read-out: HEL92 ED50
[3] = system: SW-480 cells; assay: Growth inhibition, MTS assay, SW-480; type: cell-based, Human; settings: 72 hours, MTS cell viability, read-out: SW-480 ED50
Excerpt: (§1) The following cell lines, were obtained and used in tests as outlined below: • Human myelomonocytic, biphenotypic leukemia MV4-11 cells (harboring a Flt3-ITD mutation); • Human Acute Myeloid Leukemia MOLM16 cells; • Human Acute Myeloid Leukemia MOLM13 cells (harboring a Flt3-ITD mutation); • Human Myeloid Leukemia KG-1 cells; • Human erythroleukemia HEL92 cells; • Human mantle cell lymphoma Jeko-1 cells; • Human hepatocellular carcinoma HepG2 cells; and • Human colon adenocarcinoma SW-480 cells.
(§2) The assays were carried out according to the following protocol, which is described as an example for the MV4-11 cells:
(§3) Ten thousand MV4-11 cells were inoculated into each well of a 96-well microplate (manufactured by Corning Corp.) using Iscove's MDM medium (culture medium) containing 10% fetal calf serum (FCS). The same day, a dimethyl sulfoxide (DMSO) solution of each test compound prepared in a concentration of 10 mmol/L was further diluted with DMSO to the desired concentrations (0.1, 0.5, 1, 2.5, 5 and 10 micromol/L), and the diluted solution was added to each well. The individual wells were further cultured in 5% carbon dioxide at 37° C. for 72 hours. […] Briefly, 10 μl MTS (3-(4,5-Dimethyl-2-thiazolyl)-5-(carboxymethoxyphenyl)-2-(4-sulfophenyl)-2H-tetrazolium was added to each well, and culturing was performed in 5% carbon dioxide at 37° C. for 2 hours. After this incubation and using a microplate spectrophotometer (Synergy 2 multi-mode microplate reader (BioTek)), the absorbance of each well was measured at 490 nm. The value for cells not incubated with a test compound was designated as 100%. By comparing these values with the absorbance difference obtained at the well in which each test compound was added, the cell viability (% viability) after treatment with the test compound was calculated.

[4] = system: MV4-11 cells; assay: Growth inhibition, MTS assay, MV4-11; type: cell-based, Human; settings: MTS cell viability, read-out: MV4-11 ED50
[5] = system: HepG2 cells; assay: Growth inhibition, MTS assay, HepG2; type: cell-based, Human; settings: MTS cell viability, read-out: HepG2 ED50
[6] = target: Pim-3 (Homo sapiens (Human), UniProt Q86V86); assay: ADP-Glo Kinase Assay, Pim-3; type: biochemical; settings: 1 μM compound; for inhibition at 1 µM: read-out: Pim-3 % INH (1 μM)
Procedure: (§4) Compounds of the present invention were tested for their inhibitory activity against Pim-1, Pim-2, Pim-3, Flt3 wt, Flt3 ITD, CDK2/E and DYRK1. The testing of the compounds was carried out using the ADP-Glo™ Kinase Assay from Promega Corporation (Madison, Wis., USA).
(§5) The ADP-Glo™ Kinase Assay is a luminescent ADP detection assay to measure kinase activity by quantifying the amount of ADP produced during a kinase reaction. The kinase assay is performed in kinase assay buffer (5 mM MOPS, pH 7.5, 5 mM MgCl2, 0.4 mM EDTA, 1.5 mM DTT). Test samples initially dissolved in DMSO at 10 mM were diluted with the assay buffer to 1000 nM. A 30 μL volume/well of a mixture of substrates containing ATP (final ATP concentration in each kinase assay was equal to its apparent ATP Km).
(§6) The assay was performed in two steps: first, after the kinase reaction, an equal volume of ADP-Glo™ Reagent was added to terminate the kinase reaction and deplete the remaining ATP. Second, the Kinase Detection Reagent was added to simultaneously convert ADP to ATP and allowed the newly synthesized ATP to be measured using a luciferase/luciferin reaction. The luminescent signal generated was proportional to the ADP concentration produced and was correlated with kinase activity. A microplate spectrophotometer (Synergy 2 multi-mode microplate reader [BioTek]) was used for detecting the luminescence. The data was normalized and the percent of inhibition was obtained according to the following equation: […]

[7] = target: FLT3wt (Homo sapiens (Human), UniProt P36888); assay: ADP-Glo Kinase Assay, Flt3 wt; type: biochemical; settings: 1 μM compound; for inhibition at 1 µM: read-out: Flt3wt % INH (1 μM)
How it was run: (§7)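 ADP-Glo luminescent ADP detection of human kinase activity in 5 mM MOPS pH 7.5, 5 mM MgCl2, 0.4 mM EDTA, 1.5 mM DTT. ATP at each kinase's apparent Km; compounds diluted to 1000 nM in assay buffer. Percent inhibition from normalised luminescence.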

[8] = system: Jeko-1 cells; assay: Growth inhibition, MTS assay, Jeko-1; type: cell-based, Human; settings: 72 hours, MTS cell viability, read-out: Jeko-1 ED50
Excerpt: as §1, §2, §3

[9] = target: Pim-2 (Homo sapiens (Human), UniProt Q9P1W9); assay: ADP-Glo Kinase Assay, Pim-2; type: biochemical; settings: 1 μM compound; for inhibition at 1 µM: read-out: Pim-2 % INH (1 μM)
Procedure: as §4, §5, §6

[10] = target: CDK2/E (Homo sapiens (Human), UniProt P24941); assay: ADP-Glo Kinase Assay, CDK2/E; type: biochemical; settings: 1 μM compound; for inhibition at 1 µM: read-out: CDK2/E % INH (1 μM)
How it was run: as §7

[11] = target: Pim-1 (Homo sapiens (Human), UniProt P11309); assay: ADP-Glo Kinase Assay, Pim-1; type: biochemical; settings: 1 μM compound; for inhibition at 1 µM: read-out: Pim-1 % INH (1 μM)
How it was run: as §7

[12] = target: DYRK1 (Homo sapiens (Human), UniProt Q13627); assay: ADP-Glo Kinase Assay, DYRK1; type: biochemical; settings: 1 μM compound; for inhibition at 1 µM: read-out: DYRK1A % INH (1 μM)
How it was run: as §7

[13] = MV-4-11 xenograft, Cytarabine 50 mg/Kg TIW
[14] = MV4-11 xenograft, oral, 150 mg/Kg QD

Chain of Pim-2 (Q9P1W9 whole entry): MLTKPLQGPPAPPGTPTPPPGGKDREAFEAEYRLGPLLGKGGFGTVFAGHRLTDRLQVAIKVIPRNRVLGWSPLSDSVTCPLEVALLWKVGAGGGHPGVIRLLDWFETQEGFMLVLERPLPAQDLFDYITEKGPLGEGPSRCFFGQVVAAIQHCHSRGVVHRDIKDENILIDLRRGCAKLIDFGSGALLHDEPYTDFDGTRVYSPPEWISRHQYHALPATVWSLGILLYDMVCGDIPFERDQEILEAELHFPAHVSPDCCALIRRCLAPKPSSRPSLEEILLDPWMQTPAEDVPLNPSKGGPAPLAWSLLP
Chain of Pim-1 (P11309 whole entry): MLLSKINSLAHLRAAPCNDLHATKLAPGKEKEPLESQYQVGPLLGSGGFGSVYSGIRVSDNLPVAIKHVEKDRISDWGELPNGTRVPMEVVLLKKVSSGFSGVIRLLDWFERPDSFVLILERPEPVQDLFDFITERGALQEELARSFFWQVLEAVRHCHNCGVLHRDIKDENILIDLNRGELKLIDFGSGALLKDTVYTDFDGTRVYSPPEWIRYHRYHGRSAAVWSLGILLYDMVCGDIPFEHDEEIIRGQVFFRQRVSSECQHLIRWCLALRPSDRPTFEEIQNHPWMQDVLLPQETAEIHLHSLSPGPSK
Chain of FLT3wt (P36888 27-993): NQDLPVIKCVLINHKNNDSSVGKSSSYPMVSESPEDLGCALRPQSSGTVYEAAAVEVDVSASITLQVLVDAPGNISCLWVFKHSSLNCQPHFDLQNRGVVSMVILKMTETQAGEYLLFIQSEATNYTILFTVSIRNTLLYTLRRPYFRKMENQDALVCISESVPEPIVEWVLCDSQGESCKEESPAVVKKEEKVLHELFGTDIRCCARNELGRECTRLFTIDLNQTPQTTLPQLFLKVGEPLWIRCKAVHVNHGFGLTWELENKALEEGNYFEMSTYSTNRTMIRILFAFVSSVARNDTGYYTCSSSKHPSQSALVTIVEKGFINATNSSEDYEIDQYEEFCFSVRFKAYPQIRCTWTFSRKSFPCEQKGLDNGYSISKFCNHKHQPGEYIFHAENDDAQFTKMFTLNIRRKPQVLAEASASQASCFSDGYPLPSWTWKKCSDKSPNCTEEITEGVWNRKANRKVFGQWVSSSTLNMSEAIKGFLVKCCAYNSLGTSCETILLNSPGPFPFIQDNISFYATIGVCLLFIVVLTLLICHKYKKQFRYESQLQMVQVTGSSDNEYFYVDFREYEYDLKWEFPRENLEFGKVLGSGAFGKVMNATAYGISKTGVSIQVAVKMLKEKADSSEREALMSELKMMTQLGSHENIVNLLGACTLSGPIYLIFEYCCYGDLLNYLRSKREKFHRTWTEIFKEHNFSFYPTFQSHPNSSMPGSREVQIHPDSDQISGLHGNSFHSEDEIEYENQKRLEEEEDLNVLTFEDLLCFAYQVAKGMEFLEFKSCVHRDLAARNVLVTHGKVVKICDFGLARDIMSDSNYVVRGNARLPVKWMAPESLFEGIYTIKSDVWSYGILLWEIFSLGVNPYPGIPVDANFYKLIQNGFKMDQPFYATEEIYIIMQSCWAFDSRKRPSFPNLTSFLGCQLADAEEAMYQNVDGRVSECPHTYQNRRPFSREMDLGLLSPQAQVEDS

SMILES | IC50 ([2]; 72 hours) | IC50 ([4]; 72 hours) | IC50 ([5]; 72 hours) | Flt3wt % INH (1 μM) [7] | CDK2/E % INH (1 μM) [10] | Pim-1 % INH (1 μM) [11] | IC50 ([3]; Homo sapiens, SW480) | inhibition at 1 µM [6] | inhibition at 1 µM [9] | IC50 ([2]; Homo sapiens, 72 h) | inhibition at 1 µM [12] | IC50 ([4]; Homo sapiens, MV4-11, 72 h) | IC50 ([5]; Homo sapiens, HepG2, 72 h) | inhibition at 1 µM [7] | inhibition at 1 µM [10] | inhibition at 1 µM [11] | IC50 ([8]; Homo sapiens, JeKo-1) | further results
Nc1ccn([C@@H]2O[C@H](CO)[C@@H](O)[C@@H]2O)c(=O)n1 [Cytarabine, cytarabine, reference compound] | – | – | – | – | – | – | – | – | – | – | – | – | – | – | – | – | – | TGI (tumor growth inhibition) [1, 13]: 60%; ΔBW (body weight change) [1, 13]: −2%
NCCCNc1nc2c([N+](=O)[O-])c(Br)c(Br)cc2n1CC1CC1 [Example 1AB] | 5.8 µM | 2.8 µM | 2.3 µM | <5% | <5% | >95% | – | – | – | – | – | – | – | – | – | – | – | IC50 [3]: 3.2 µM; Pim-3 % INH (1 μM) [6]: 87%; IC50 [8]: 1.2 µM; Pim-2 % INH (1 μM) [9]: 46%
CC(C)n1c(N2CC[C@H](N)C2)nc2c([N+](=O)[O-])c(Br)c(Br)cc21 [Example 1AZ] | 2.6 µM | 1.1 µM | 2.2 µM | 48% | 38% | >95% | – | – | – | – | – | – | – | – | – | – | – | DYRK1A % INH (1 μM) [12]: 72%; TGI (tumor growth inhibition) [1, 14]: 76%; ΔBW (body weight change) [1, 14]: −0.2%; TGI (tumor growth inhibition) ([1]; MV4-11 xenograft, oral, doses as in Table 3): more than 70%; Pim-3 % INH (1 μM) [6]: 94%; Pim-2 % INH (1 μM) [9]: 70%
CCn1c(N2CCCC(N)C2)nc2c([N+](=O)[O-])c(Br)c(Br)cc21.Cl (stereo not drawn) [Example 1F] | 5.0 µM | 2.3 µM | 3.3 µM | 6% | <5% | 90% | – | – | – | – | – | – | – | – | – | – | – | DYRK1A % INH (1 μM) [12]: 20%; IC50 [3]: 3.3 µM; Pim-3 % INH (1 μM) [6]: 83%; Pim-2 % INH (1 μM) [9]: 36%
CCn1c(NC2CCC(N)CC2)nc2c([N+](=O)[O-])c(Br)c(Br)cc21 (stereo not drawn) [Example 1H] | 7.6 µM | 2.3 µM | 2.7 µM | <5% | <5% | 58% | 3.4 µM | 38% | 25% | – | – | – | – | – | – | – | – | DYRK1A % INH (1 μM) [12]: 9%
CC(C)n1c(NCCCN)nc2c([N+](=O)[O-])c(Br)c(Br)cc21 [Example 1L] | – | – | – | – | – | – | 3.3 µM | > 95% | 58% | 5.7 µM | 47% | 1.2 µM | 1.6 µM | 21% | 32% | > 95% | – | –
CC(C)n1c(N2CCCC(N)C2)nc2c([N+](=O)[O-])c(Br)c(Br)cc21 (stereo not drawn) [Example 1T] | – | – | – | – | – | – | 3.2 µM | > 95% | 81% | 5.1 µM | 27% | 0.6 µM | 1.3 µM | 21% | 7% | > 95% | 1.7 µM | –
CCCn1c(N2CCCC(N)C2)nc2c([N+](=O)[O-])c(Br)c(Br)cc21 (stereo not drawn) [Example 1U] | – | – | – | – | – | – | 3.3 µM | > 95% | 37% | 4.7 µM | 35% | 0.6 µM | 1.5 µM | 9% | < 5% | > 95% | 1.8 µM | –
CC(C)Cn1c(N2CCCC(N)C2)nc2c([N+](=O)[O-])c(Br)c(Br)cc21 (stereo not drawn) [Example 1V] | – | – | – | – | – | – | 3.1 µM | > 95% | – | 5.6 µM | 11% | 0.7 µM | 0.9 µM | < 5% | < 5% | > 95% | 2.9 µM | –
CCn1c(N2CCCC2CN)nc2c([N+](=O)[O-])c(Br)c(Br)cc21 (stereo not drawn) [Example 1Z] | – | – | – | – | – | – | 6.9 µM | 92% | – | – | – | 1.7 µM | 6.4 µM | < 5% | < 5% | 67% | 5.6 µM | –
CCn1c(NC2CCC(O)CC2)nc2c([N+](=O)[O-])c(Br)c(Br)cc21 (stereo not drawn) [Example 22B, 4-[(5,6-dibromo-1-ethyl-4-nitro-1H-1,3-benzodiazol-2-yl)amino]cyclohexan-1-ol] | – | – | – | – | – | – | 6 µM | – | – | 8.8 µM | – | 7.9 µM | > 10 µM | – | – | – | 3 µM | –
CCn1c(N2CCCN(C)CC2)nc2c([N+](=O)[O-])c(Br)c(Br)cc21 [Example 22M, 5,6-dibromo-1-ethyl-2-(4-methyl-1,4-diazepan-1-yl)-4-nitro-1H-1,3-benzodiazole] | – | – | – | – | – | – | 4.7 µM | 29% | 18% | 6.5 µM | – | 3.7 µM | 5 µM | < 5% | < 5% | 74% | – | –
